We go through three compounds from patent US6106856A (The Board of Governors for Higher Education, State of Rhode …, priority 1995, dated 2000).

Each structure is given as a SMILES string.

The nature of data set [1]: Permeation through heat-separated human epidermis (Franz-diffusion cell). Type of data set: in vitro ADME. As to the method: (§1) […] of this solution was given on heat-separated human epidermis (breast, area 4.5 cm^2) which was mounted on a Franz-diffusion cell. The cell was filled with 23 ml of a mixture of 60 parts of a 0.9% NaCl-solution and 40 parts of polyethylene glycol 400 (v/v).

For data set [2] the following is noted: cited from earlier work.
Data set [3] in a line: Recrystallization of applied saturated drug solution during the permeation experiment. Type of data set: physicochemical. The following applies: applied crystal-free. Here is the method: as §1

Consider `COC(=O)C1=C(C)NC(C)=C(C(=O)OC)C1c1ccccc1[N+](=O)[O-]` [Nifedipine], for which the Flux in data set [1] (8 h column) is reported as 0.35 μg/cm *h; in data set [1] (24 h column), 7.44 μg/cm *h; in data set [1] (32 h column) it was 6.13 μg/cm *h; in data set [1] (48 h column), 12.29 μg/cm *h. In data set [2] (clinical studies), the “correlation of hypotensive and untoward side effects with plasma concentration” value is on record as “correlated with the plasma nifedipine concentration”. The “variation of transient, high plasma levels” value in data set [2] (oral administration of conventional capsules) is reported as “may vary by tenfold”. The “interindividual variability of plasma levels” value in data set [2] (oral administration) is “Extraordinary interindividual variability”. For the same compound, the “heart rate and blood pressure effect on rapid increase of plasma concentration” value in data set [2] (rapid increase of plasma nifedipine concentration) was “marked increase in heart rate and little effect on blood pressure”.

As for `COCCOC(=O)C1=C(C)NC(C)=C(C(=O)OC(C)C)C1c1cccc([N+](=O)[O-])c1` (stereo not shown) [Nimodipine], the “recrystallization during the experiment” value in data set [3] was “recrystallization”.

`O=[N+]([O-])OCC(CO[N+](=O)[O-])O[N+](=O)[O-]` [nitroglycerin]: the “tolerance observed in patients” value in data set [2] (transdermal nitroglycerin) is recorded as “tolerance observed in patients”.
